Data: patent publication US20260130933A1, “PHARMACEUTICAL COMPOSITION FOR PREVENTION OR TREATMENT OF NEPHROPATHY AND/OR DIABETES MELLITUS, COMPRISING ENAVOGLIFLOZIN” (DAEWOONG PHARMACEUTICAL CO., LTD., priority 2022, published 2026)

Experiment: Example 3: phase 3 trial, enavogliflozin 0.3 mg vs dapagliflozin 10 mg once a day for 24 weeks added to metformin and gemigliptin in patients with type 2 diabetes (same endpoints, rescue drug)
Type: in vivo, human
Experimental: 1) when Metformin (≥1,000 mg/Day) was Administered at a Constant Dose for at Least 8 Weeks Prior to Pre-Visit (Pre-Screening) • Metformin (≥1,000 mg/day) and gemigliptin (50 mg/day) were co-administered during the 8-week stabilization period. […] 4) when Metformin (≥1,000 mg/Day) and Gemigliptin (50 mg/Day) were Co-Administered at Constant Doses for at Least 8 Weeks Prior to Pre-Visit (Prescreening) • Without a separate stabilization period, Pre-visit (pre-screening) was Visit 1 (screening).
Subjects who met the inclusion/exclusion criteria continued to receive metformin and gemigliptin while receiving a placebo of the clinical trial drug in a single-blind (subject-blinded) state for a 2-week run-in period.
Here, the randomized subjects were stratified according to the administration therapy (co-administration with two or less agents (one or two agents) or three or more agents) of a conventional hypoglycemic agent (before washout of another hypoglycemic agent) within 24 weeks prior to obtaining written informed consent and by an HbA1c value (<8% or ≥8%) at Visit 1 (screening) measured in the central laboratory.
The randomized subjects were administered two tablets of the clinical trial drug corresponding to each administration group once a day, and then visited the institution at weeks 6, 12, 18, and 24 during the 24-week administration period to conduct efficacy and safety assessments. In addition, during the clinical trial period, they were instructed to exercise regularly and control their diet without changing their daily life patterns.
• 1) Change in HbA1c at week 24 after administration of clinical trial drug compared to Visit 2 (randomization)
• 1) Change in HbA1c at each time point of weeks 6, 12, and 18 after administration of clinical trial drug compared to Visit 2 (randomization) • 2) Change in FPG at each time point of weeks 6, 12, 18, and 24 after administration of clinical trial drug compared to Visit 2 (randomization) • 3) Proportion of subjects achieving HbA1c<7% at each time point of weeks 6, 12, 18, and 24 after administration of clinical trial drug • 4) Proportion of subjects achieving HbA1c<6.5% at each time point of weeks 6, 12, 18, and 24 after administration of clinical trial drug • 5) Proportion of subjects achieving therapeutic response (HbA1c change (HbA1c at Visit 2—HbA1c at each evaluation time point)>0.5% or HbA1c<7% at each evaluation time point compared to Visit 2 (randomization)) at each time point of weeks 6, 12, 18, and 24 after administration of clinical trial drug • 6) Proportion of subjects achieving therapeutic response (HbA1c change (HbA1c at Visit 2—HbA1c at each evaluation time point)>0.7% or HbA1c<7% at each evaluation time point compared to Visit 2 (randomization)) at each time point of weeks 6, 12, 18, and 24 after administration of clinical trial drug • 7) Proportion of subjects achieving therapeutic response (HbA1c change (HbA1c at Visit 2—HbA1c at each evaluation time point)>1% or HbA1c<7% at each evaluation time point compared to Visit 2 (randomization)) at each time point of weeks 6, 12, 18, and 24 after administration of clinical trial drug

[1] = week 12, per-protocol set, enavogliflozin 0.3 mg, dapagliflozin 10 mg
[2] = week 18, modified per-protocol set 1, enavogliflozin 0.3 mg vs dapagliflozin 10 mg
[3] = week 18, modified per-protocol set 1, enavogliflozin 0.3 mg, dapagliflozin 10 mg
[4] = week 18, modified per-protocol set 2
[5] = week 18, modified per-protocol set 2, enavogliflozin 0.3 mg, dapagliflozin 10 mg
[6] = week 18, per-protocol set, enavogliflozin 0.3 mg vs dapagliflozin 10 mg
[7] = week 18, per-protocol set, enavogliflozin 0.3 mg, dapagliflozin 10 mg

## OC[C@H]1O[C@@H](c2cc(Cc3ccc(C4CC4)cc3)c(Cl)c3c2CCO3)[C@H](O)[C@@H](O)[C@@H]1O [Enavogliflozin, (2S,3R,4R,5S,6R)-2-(7-chloro-6 (4-cyclopropylbenzyl)-2,3-dihydrobenzofuran-4-yl)-6-(hydroxymethyl)tetrahydro-2H-pyran-3,4,5-triol]
[1]
  HbA1c, Median: 6.83%
  Subjects achieving HbA1c target of <6.5%, (%): 23.08%
  Subjects achieving HbA1c target of <7%, %: 67.52%
  body weight, Median: 65.80 kg
Week 12, per-protocol set, response 1 = HbA1c change >0.5% or HbA1c <7%, enavogliflozin 0.3 mg, dapagliflozin 10 mg
  Subjects achieving therapeutic glycemic response 1, %: 89.74%
Week 12, per-protocol set, response 2 = HbA1c change >0.7% or HbA1c <7%, enavogliflozin 0.3 mg, dapagliflozin 10 mg
  Subjects achieving therapeutic glycemic response 2, %: 85.47%
Week 12, per-protocol set, response 3 = HbA1c change >1% or HbA1c <7%, enavogliflozin 0.3 mg, dapagliflozin 10 mg
  Subjects achieving therapeutic glycemic response 3, %: 78.63%
Week 18
  FPG change from baseline, LS mean (SE): −27.77(1.63) mg/dL
  HDL-C change from baseline, LS mean (SE): 3.82(0.64) mg/dL
  HOMA-IR change from baseline, LS mean (SE): −1.14(0.11)
  HOMA-β change from baseline, LS mean (SE): 5.97(2.27)
  HbA1c change from baseline, LS mean (SE): −0.83(0.05) % p
  LDL-C change from baseline, LS mean (SE): 0.29(1.63) mg/dL
  Subjects achieving therapeutic response (HbA1c change >0.5% or HbA1c<7%): 82.91%
  UACR change from baseline, LS mean (SE): −11.08(3.89) g/kg
  UGCR change from baseline, LS mean (SE): 58.74(2.33) mg/mg
  adiponectin change from baseline, LS mean (SE): 0.78(0.33) μg/mL
  body weight change from baseline, LS mean (SE): −3.16(0.24) kg
  diastolic blood pressure change from baseline, LS mean (SE): −3.41(0.71) mmHg
  fasting C-peptide change from baseline, LS mean (SE): −0.08(0.02) ng/mL
  leptin change from baseline, LS mean (SE): −1.46(0.52) ng/ml
  systolic blood pressure change from baseline, LS mean (SE): −6.82(0.92) mmHg
  total cholesterol change from baseline, LS mean (SE): 4.27(1.94) mg/dL
  triglyceride change from baseline, LS mean (SE): −11.64(4.46) mg/dL
Week 18, vs dapagliflozin
  FPG change from baseline, LS mean difference: -4.22 mg/dL
  HDL-C change from baseline, LS mean difference: 0.40 mg/dL
  HOMA-IR change from baseline, LS mean difference: −0.13
  HOMA-β change from baseline, LS mean difference: 1.48
  HbA1c change from baseline, LS mean difference: −0.07 % p
  LDL-C change from baseline, LS mean difference: -1.10 mg/dL
  Odds ratio for achieving HbA1c<6.5%: 1.20
  Odds ratio for achieving HbA1c<7%: 1.36
  Odds ratio, therapeutic response (HbA1c change >0.5% or HbA1c<7%): 1.02
  Odds ratio, therapeutic response (HbA1c change >0.7% or HbA1c<7%): 1.09
  Odds ratio, therapeutic response (HbA1c change >1% or HbA1c<7%): 1.22
  UACR change from baseline, LS mean difference: -2.18 g/kg
  UGCR change from baseline, LS mean difference: 13.34 mg/mg
  adiponectin change from baseline, LS mean difference: 0.42 µg/mL
  body weight change from baseline, LS mean difference: -0.15 kg
  diastolic blood pressure change from baseline, LS mean difference: −0.99 mmHg
  fasting C-peptide change from baseline, LS mean difference: -0.02 ng/mL
  leptin change from baseline, LS mean difference: -0.40 ng/mL
  systolic blood pressure change from baseline, LS mean difference: −1.66 mmHg
  total cholesterol change from baseline, LS mean difference: 0.61 mg/dL
  triglyceride change from baseline, LS mean difference: 0.75 mg/dL
[2]
  Change from baseline in HDL-C, ANCOVA LS mean difference: 0.40 mg/dL
  Change from baseline in LDL-C, ANCOVA LS mean difference: -1.10 mg/dL
  Change from baseline in total cholesterol, ANCOVA LS mean difference: 0.61 mg/dL
  Change from baseline in triglycerides, ANCOVA LS mean difference: 0.75 mg/dL
[3]
  Change from baseline in HDL-C, ANCOVA LS mean: 3.82 mg/dL
  Change from baseline in HDL-C, Mean: 4.09 mg/dL
  Change from baseline in HDL-C, Median: 3.00 mg/dL
  Change from baseline in LDL-C, ANCOVA LS mean: 0.29 mg/dL
  Change from baseline in LDL-C, Mean: 0.94 mg/dL
  Change from baseline in LDL-C, Median: 0.00 mg/dL
  Change from baseline in total cholesterol, ANCOVA LS mean: 4.27 mg/dL
  Change from baseline in total cholesterol, Mean: 5.06 mg/dL
  Change from baseline in total cholesterol, Median: 3.00 mg/dL
  Change from baseline in triglycerides, ANCOVA LS mean: -11.64 mg/dL
  Change from baseline in triglycerides, Mean: -9.60 mg/dL
  Change from baseline in triglycerides, Median: -2.00 mg/dL
  Fasting HDL-C, Mean: 50.17 mg/dL
  Fasting HDL-C, Median: 49.50 mg/dL
  Fasting LDL-C, Mean: 72.10 mg/dL
  Fasting LDL-C, Median: 68.00 mg/dL
  Fasting total cholesterol, Mean: 139.38 mg/dL
  Fasting triglycerides, Mean: 109.52 mg/dL
  Fasting triglycerides, Median: 95.50 mg/dL
  fasting Total cholesterol, Median: 134.00 mg/dL
[4]
  Change from baseline in diastolic blood pressure, ANCOVA LS mean: −3.41 mmHg
  Change from baseline in diastolic blood pressure, LS mean difference (enavogliflozin − dapagliflozin): −0.99 mmHg
  Change from baseline in diastolic blood pressure, Mean: −4.03 mmHg
  Change from baseline in diastolic blood pressure, Median: −5.00 mmHg
  Diastolic blood pressure, Mean: 72.53 mmHg
  Diastolic blood pressure, Median: 72.00 mmHg
Week 18, modified per-protocol set 2, enavogliflozin 0.3 mg vs dapagliflozin 10 mg
  Change from baseline in systolic blood pressure, ANCOVA LS mean difference: −1.66 mmHg
[5]
  Change from baseline in systolic blood pressure, ANCOVA LS mean: −6.82 mmHg
  Change from baseline in systolic blood pressure, Mean: −7.37 mmHg
  Change from baseline in systolic blood pressure, Median: −7.00 mmHg
  Systolic blood pressure, Mean: 119.95 mmHg
  Systolic blood pressure, Median: 119.00 mmHg
Week 18, per-protocol set
  Adiponectin, Mean: 7.03 µg/mL
  Adiponectin, Median: 6.26 µg/mL
  Change from baseline in HOMA-IR, ANCOVA LS mean: −1.14
  Change from baseline in HOMA-IR, LS mean difference (enavogliflozin − dapagliflozin): −0.13
  Change from baseline in HOMA-IR, Mean: −1.16
  Change from baseline in HOMA-IR, Median: −0.82
  Change from baseline in HOMA-β, ANCOVA LS mean: 5.97
  Change from baseline in HOMA-β, LS mean difference (enavogliflozin − dapagliflozin): 1.48
  Change from baseline in HOMA-β, Mean: 6.09
  Change from baseline in HOMA-β, Median: 4.10
  Change from baseline in UACR, ANCOVA LS mean: -11.08 g/kg
  Change from baseline in UACR, LS mean difference (enavogliflozin − dapagliflozin): -2.18 g/kg
  Change from baseline in UACR, Mean: -12.07 g/kg
  Change from baseline in UACR, Median: -1.50 g/kg
  Change from baseline in UGCR, ANCOVA LS mean: 58.74 mg/mg
  Change from baseline in UGCR, LS mean difference (enavogliflozin − dapagliflozin): 13.34 mg/mg
  Change from baseline in UGCR, Mean: 57.23 mg/mg
  Change from baseline in UGCR, Median: 54.56 mg/mg
  Change from baseline in adiponectin, ANCOVA LS mean: 0.78 µg/mL
  Change from baseline in adiponectin, LS mean difference (enavogliflozin − dapagliflozin): 0.42 µg/mL
  Change from baseline in adiponectin, Mean: 0.80 µg/mL
  Change from baseline in adiponectin, Median: 0.60 µg/mL
  Change from baseline in leptin, ANCOVA LS mean: -1.46 ng/mL
  Change from baseline in leptin, LS mean difference (enavogliflozin − dapagliflozin): -0.40 ng/mL
  Change from baseline in leptin, Mean: -1.63 ng/mL
  Change from baseline in leptin, Median: -0.89 ng/mL
  HOMA-IR (insulin resistance), Mean: 1.74
  HOMA-IR (insulin resistance), Median: 1.42
  HOMA-β (beta-cell function), Mean: 49.26
  HOMA-β (beta-cell function), Median: 40.00
  Leptin, Mean: 8.87 ng/mL
  Leptin, Median: 5.86 ng/mL
  UACR, Mean: 25.02 g/kg
  UACR, Median: 11.30 g/kg
  UGCR, Mean: 57.96 mg/mg
  UGCR, Median: 54.71 mg/mg
[6]
  Achieving HbA1c target of <6.5%, odds ratio (logistic regression model): 1.20
  Achieving HbA1c target of <7%, odds ratio (logistic regression model): 1.36
  Change from baseline in FPG, ANCOVA LS mean difference: -4.22 mg/dL
  Change from baseline in HbA1c, ANCOVA LS mean difference: −0.07 % p
  Change from baseline in body weight, ANCOVA LS mean difference: -0.15 kg
  Change from baseline in fasting C-peptide, ANCOVA LS mean difference: -0.02 ng/mL
  Therapeutic glycemic response 1, odds ratio (logistic regression model): 1.02
  Therapeutic glycemic response 2, odds ratio (logistic regression model): 1.09
  Therapeutic glycemic response 3, odds ratio (logistic regression model): 1.22
[7]
  Body weight, Mean: 66.18 kg
  Change from baseline in FPG, ANCOVA LS mean: -27.77 mg/dL
  Change from baseline in FPG, Mean: -28.00 mg/dL
  Change from baseline in FPG, Median: -24.00 mg/dL
  Change from baseline in HbA1c, ANCOVA LS mean: −0.83 % p
  Change from baseline in HbA1c, Mean: −0.84 % p
  Change from baseline in HbA1c, Median: −0.72 % p
  Change from baseline in body weight, ANCOVA LS mean: -3.16 kg
  Change from baseline in body weight, Mean: -3.10 kg
  Change from baseline in body weight, Median: -2.90 kg
  Change from baseline in fasting C-peptide, ANCOVA LS mean: -0.08 ng/mL
  Change from baseline in fasting C-peptide, Mean: -0.09 ng/mL
  Change from baseline in fasting C-peptide, Median: -0.10 ng/mL
  FPG, Mean: 111.10 mg/dL
  FPG, Median: 109.00 mg/dL
  Fasting C-peptide, Mean: 0.64 ng/mL
  Fasting C-peptide, Median: 0.60 ng/mL
  HbA1c, Mean: 6.95%
